Values of other authors, collected in patent EP3569066A1, “ECOLOGICAL FORMULA HAVING MULTIPLE ANTIMICROBIAL ACTION (BACTERICIDAL, FUNGICIDAL AND ANTI-VIRAL) BASED ON COMMERCIAL MOLECULES” (Arias Dipre, Juan José, priority 2017, dated 2018).
Where two headings read alike, the source gives them in different places.

Settings: 0.1N solution

In the case of O=C(O)CC(O)(CC(=O)O)C(=O)O [Ingredient 1, 2-HYDROXY-1, 2, 3 TRI[…]], the pH is given as 2.2 and the pH (listed as E) is given as 2.2 (0.1 N).
